Experimental data: patent US10265403B2, “Cyclic peptide” (priority 2013, dated 2019)
Where no end group is shown, it is not given here.

Legend:
[1] = system: E. coli; test: Bacterial adhesion / biofilm formation on coated substrates (Live/Dead stain, PrestoBlue); format: cell-based; conditions: 16-hour incubations; E. coli and B. subtilis (FIGS. 12b, 13b, 13c, 14)
Procedure: Bacterial inocula (E. coli and B. subtilis) were prepared in Mueller Hinton broth at A600 of 0.6, then diluted to 1:100 in the pre-warmed medium, and 50 μL of this dilution was added to each well of the coated Nunc LabTek chambered cover glass slides. Formed biofilms were analysed after 16-hour incubations using a Live/Dead BacLight bacterial viability stain kit (Molecular Probes, UK), and were visualised by a confocal laser scanning microscope (CLSM) (FV-1000, Olympus). Bacterial viability was quantitatively probed by using PrestoBlue® reagent, as used for the cell viability and proliferation assay. E. coli was seeded at the same density as above in sterile bare and coated 96-well plates. After 16 hours incubation at 37° C. (or 30° C. for B. subtilis), the biofilm formed on each substrate was carefully washed with 10 mM Tris-HCl buffer, pH 7, to remove bacteria remaining in suspension. Two hundred microliters of PrestoBlue® reagent diluted in Mueller Hinton broth were added to each well and incubated for 30 minutes at 37° C. The fluorescence of each well was measured using a microplate reader with 544 nm excitation and 590 nm emission filters.
FIG. 13b and FIG. 13c are fluorescence micrographs and total viable cell counts respectively determined by PrestoBlue® of E. coli after 16-hour incubations on different substrates. […]

[2] = system: Human dermal fibroblasts; test: Impedance measurements (xCELLigence) of cells on coated electrodes; format: cell-based; conditions: serum-depleted medium
Procedure: Comparative impedance measurements using cell-electrode interfaces, which allow evaluating changes in effective impedance (resistance) to applied alternating current, provided further support for different cell proliferation patterns that were measured continuously in real time. Typically, cell attachments to electrode surfaces give impedance increases, whereas changes in cell morphology (cell rounding-up and detachment) cause impedance drops. Resistance traces that can correspond to different events including changes in cellular morphology, patterning and growth rates were recorded as a function of time, with cells seeded in a serum-depleted medium to avoid interferences by serum, which can modulate same signaling pathways for cell adhesion.
Impedance measurements were performed using an xCELLigence system according to the manufacturer's protocols (Roche, UK; ACEA Biosciences, USA). Each electrode array comprises 16 wells, each of which was first coated with assembled SaNet and protein solutions and background measurements were carried out prior to cell seeding. […] The electrical impedance of each well was automatically recorded every 5 min for the first 24 hours and then every 30 min till the end, and were normalised and expressed using the proprietary software as normalised cell index. Bacterial adhesions were measured every 5 min for over 15 hours. […]

[3] = system: Human dermal fibroblasts; test: Cell adhesion, proliferation and viability on coated substrates (PrestoBlue, Vybrant MTT, CyQUANT); format: cell-based; conditions: serum-free media, days 1, 4 and 8, 50 μL peptide 100 μM or protein 500 μg/mL
Procedure: Human dermal fibroblasts (Invitrogen, UK) were maintained in Medium 106 supplemented with low serum growth supplement (2% v/v) and antibiotics (10 μg/mL gentamicin; 0.25 μg/mL amphotericin B) in […] culture flasks. The cells were incubated at 37° C., 5% CO2 and 95% air humidity. At 70-80% confluency cells were washed with PBS to remove the unattached cells and then adhered cells were trypsinised (trypsin/EDTA 0.025:0.01%) followed by trypsin neutraliser (all from Invitrogen, UK). The harvested cells (of passages 3 to 5) were seeded for subsequent cellular analysis.
Cells were seeded at a density of 4×10^3 in serum-free media for cell viability and proliferation assays on substrates (sterile 96 well plates) coated with 50 μL of peptide (100 μM) or protein (500 μg/mL). For cytoskeletal visualisation Nunc LabTek chambered cover glass slides were used as substrates.
Cell proliferation rates and viability were determined by PrestoBlue®, Vybrant® MTT and CyQUANT® assays on day 1, 4 and 8 (all from Life Technologies, UK).
PrestoBlue® reagent is supplied as a 10× solution and added to each well by diluting (1×) in the serum-free culture medium. The cells were incubated for 30 minutes at 37° C. in 200 μL of the reagent. The fluorescence of each well was measured with a microplate reader (BMG Labtech, Germany), with 544 nm excitation and 590 nm emission filters. Standard calibration curves were generated by plotting measured fluorescence values versus cell numbers. […]
Vybrant® MTT assay: For the colourimetric 3-(4, 5-dimethylthiazole-2-yl)-2, 5-diphenyl tetrazolium bromide (MTT) cell proliferation assay, the cell medium was removed from each well at the set time points and washed with PBS followed by the addition of MTT solution (10 μL, 5 mg/mL in PBS) and serum-free fresh media (100 μL). […] The absorbance intensity was measured by a microplate reader at 540 nm with a reference wavelength at 640 nm. Standard calibration curves were generated by plotting measured absorbance values versus cell numbers. […]

[4] = system: E. coli (K12); format: cell-based; conditions: K12, 24 h
Procedure: (§1) Minimum inhibitory concentrations (MIC) were determined by broth microdilution on P. aeruginosa ATCC 27853, E. coli K12, S. aureus ATCC 25723, M. luteus NCIMB 13267 and B. subtilis ATCC 6633 according to the Clinical and Laboratory Standards Institute. Typically, 100 μl of 0.5-1×10^6 CFU per ml of each bacterium in Mueller Hinton broth was incubated in 96 well plates with […] of serial two-fold dilutions of the peptides (final concentrations, 100-0 mM) at 37° C. (or 30° C. for B. subtilis and M. luteus) on a 3D orbital shaker. The absorbance was measured after peptide addition at 600 nm using a Victor 2 plate reader (Perkin Elmer). Minimum inhibitory concentrations (MICs) were defined as the lowest peptide concentration showing growth inhibition after 24 hours at 37° C. All tests were done in triplicate.

[5] = system: B. subtilis (ATCC 6633); format: cell-based; conditions: ATCC 6633, 24 h
Procedure: as §1

[6] = system: M. luteus; format: cell-based; conditions: 24 h
Procedure: as §1

[7] = system: P. aeroginosa (ATCC 27853); format: cell-based, P. aeruginosa; conditions: ATCC 27853, 24 h
Procedure: as §1

[8] = system: Human erythrocytes; test: Haemolysis of human erythrocytes; format: cell-based; conditions: in words
Procedure: (§2) Haemolysis was determined by incubating 10% (v/v) suspension of human erythrocytes with peptides. Erythrocytes were rinsed 4 times in 10 mM PBS, pH 7.2, by repeated centrifugation and re-suspension (3 min, 3000×g). Erythrocytes were incubated at room temperature for 1 hour in either deionised water (fully haemolysed control), PBS or with peptide in PBS. After centrifugation at 10 000 g for 5 min, the supernatant was separated from the pellet and the absorbance measured at 550 nm. Absorbance of the suspension treated with deionised water defined complete haemolysis. The values given in Table 2 correspond to concentrations needed to kill a half of the sample population (50% lysis of human erythrocytes) and are expressed as median lethal concentrations—LC50. All tests were done in triplicate.

[9] = Haemolysis of human erythrocytes; format: cell-based; conditions: 10% (v/v) suspension, pH 7.2; 50% lysis of human erythrocytes, 1 hour, room temperature; read-out: LC50
Procedure: as §2

[10] = system: S. aureus (ATCC 6538); format: cell-based; conditions: ATCC 6538, 24 h

Substance	resistance against bacterial adhesion / biofilm formation [1]	normalised impedance after second medium inoculation [2]	cell adhesion and proliferation (total cells / total viable cells) [3]	MIC [4] [µM]	MIC [5] [µM]	MIC [6] [µM]	MIC [7] [µM]	haemolytic activity [8]	CC50 at 1 hour [9] [µM]	MIC [10] [µM]
collagen	did not resist biofilm formation	a gradually ascending phase in impedance	comparable values							
fibronectin	did not resist biofilm formation	steady decays in resistance curves	comparable values							
cyclo(AALEGGGEIAALEQEIAALEYKIAALKGGGKIAALKQKIAALKQEI) [SaNet]				100	50	<50	>100	negligible	> 600	>100
KIAALKQKIAALKYEIAALE-am (KIAALKQKIAALKYEIAALE-NH2) [D2, individual linear second domain, negative non-assembling peptide control]			only negligible cellular responses							
